{
  "source": "patent US8895746B2",
  "about": "(University of Central Florida Research Foundation, Inc., priority 2009, dated 2014)",
  "key": {"[1]": {"test_system": "colocalization of Stat3 and EGFR and Stat3 nuclear translocation", "test": "Immunofluorescence/confocal microscopy in EGF-stimulated NIH3T3/hEGFR", "assay_type": "cell-based, mouse", "details": "50 μM pre-treatment 30 min, EGF 10 min", "experimental": "Cells were fixed with ice-cold methanol for 15 min, washed 3 times in PBS, permeabilized with 0.2% Triton® X-100 for 10 min, and further washed 3-4 times with PBS. Specimens were then blocked in 1% BSA for 30 min and incubated with EGFR (Santa Cruz) or Stat3 (Cell Signaling Tech) antibody at 1:50 dilution at 4° C. overnight. Subsequently, cells were rinsed 4-5 times in PBS, incubated with Alexafluor 546 rat antibody for EGFR detection and Alexa fluor 488 rabbit antibody for Stat3 detection (Invitrogen) for 1 h at room temperature in the dark. Specimens were then washed 5 times with PBS, covered with cover slides with […] mounting medium containing DAPI, and examined immediately under a Leica TCS SP5 confocal microscope (Germany) at appropriate wavelengths. Images were captured and processed using the Leica TCS SP 5 software.\n(§1) Cells were then subjected to immunostaining for EGFR (red) and Stat3 (green) and analyzed by confocal microscopy for EGF-induced colocalization of Stat3 and EGFR and for Stat3 nuclear translocation, as previously performed (17). In the resting NIH3T3/hEGFR fibroblasts, EGFR (red) is widely localized at the plasma membrane, while Stat3 (green) is localized at both the plasma membrane and in the cytoplasm, with a minimal colocalization with EGFR at the plasma membrane and no visible presence in the nucleus (stained blue for DAPI) (FIG. 4A upper panel)."}, "[2]": {"test_system": "NIH3T3, Stat3-null MEFs (Stat3−/−), HPDEC, TE71", "test": "Viability and growth (CyQuant, trypan blue exclusion), cells without aberrant Stat3", "assay_type": "cell-based, mouse, human", "details": "up to 200 μM", "text": "Aberrant Stat3 promotes malignant cell proliferation, survival and malignant transformation (10, 20, 42). Given that S3I201.1066 disrupts Stat3 activation, we asked the question whether this agent is able to selectively decrease the viability and growth of malignant cells that harbor aberrant Stat3 activity."}, "NIH3T3/v-Ras": {"test_system": "NIH3T3/v-Ras", "test": "Soft-agar colony formation assay", "assay_type": "cell-based, mouse", "details": "concentrations that inhibit Stat3", "experimental": "(§2) Colony formation assays were carried out in 6-well dishes, as described previously (16,37). Briefly, each well contained 1.5 ml of 1% agarose in Dulbeco's modified Eagle's medium as the bottom layer and 1.5 ml of 0.5% agarose in Dulbeco's modified Eagle's medium containing 4000 or 6000 NIH3T3/v-Src or NIH3T3/v-Ras fibroblasts, respectively, as the top layer. Treatment with S3I201.1066 was initiated 1 day after seeding cells by adding 80 μl of medium with or without S3I20.1.1066, and repeating every 3 days, until large colonies were evident. Colonies were quantified by staining with 20 μl of 1 mg/ml crystal violet, incubating at 37° C. overnight, and counting the next day under phase contrast microscope."}, "Stat3": {"test_system": "Stat3", "test": "Intracellular Stat3 activation: EMSA of nuclear extracts from treated NIH3T3/v-Src, Panc-1 and MDA-MB-231 cells", "assay_type": "cell-based, mouse, human", "details": "50 μM, 24 h, Panc-1, MDA-MB-231", "experimental": "Nuclear extract preparations and electrophoretic mobility shift assay (EMSA) were carried out as previously described (28,33). The ^32P-labeled oligonucleotide probes used were hSIE (high affinity sis-inducible element from the c-fos gene, m67 variant, 5′[…]; SEQ ID NO:5) that binds Stat1 and Stat3 (34) and MGFe (mammary gland factor element from the bovine β-casein gene promoter, 5′-[…]; SEQ ID NO:6) for Stat1 and Stat5 binding (35,36). Except where indicated, nuclear extracts were pre-incubated with compound for 30 min at room temperature prior to incubation with the radiolabeled probe for 30 min at 30° C. before subjecting to EMSA analysis. Bands corresponding to DNA-binding activities were scanned and quantified for each concentration of compound using ImageQuant and plotted as percent of control (vehicle) against concentration of compound, from which the IC50 values were derived, as previously reported (37).\nStat3 is constitutively activated in a variety of malignant cells, including human breast and pancreatic cancer cells (9, 10, 20).\nTwenty-four hours after treatment, nuclear extracts were prepared from cells and subjected to Stat3 DNA-binding assay in vitro using the radiolabeled hSIE probe and analyzed by EMSA."}, "His-tagged Stat3": {"target": "T1, His-tagged Stat3 (Mus musculus, UniProt P42227)", "T1 construct": "Coding regions for the murine Stat3 protein; made in house; host or cells: E. coli BL21(DE3)", "T1 sequence (P42227 whole entry, the tested form may be a part)": "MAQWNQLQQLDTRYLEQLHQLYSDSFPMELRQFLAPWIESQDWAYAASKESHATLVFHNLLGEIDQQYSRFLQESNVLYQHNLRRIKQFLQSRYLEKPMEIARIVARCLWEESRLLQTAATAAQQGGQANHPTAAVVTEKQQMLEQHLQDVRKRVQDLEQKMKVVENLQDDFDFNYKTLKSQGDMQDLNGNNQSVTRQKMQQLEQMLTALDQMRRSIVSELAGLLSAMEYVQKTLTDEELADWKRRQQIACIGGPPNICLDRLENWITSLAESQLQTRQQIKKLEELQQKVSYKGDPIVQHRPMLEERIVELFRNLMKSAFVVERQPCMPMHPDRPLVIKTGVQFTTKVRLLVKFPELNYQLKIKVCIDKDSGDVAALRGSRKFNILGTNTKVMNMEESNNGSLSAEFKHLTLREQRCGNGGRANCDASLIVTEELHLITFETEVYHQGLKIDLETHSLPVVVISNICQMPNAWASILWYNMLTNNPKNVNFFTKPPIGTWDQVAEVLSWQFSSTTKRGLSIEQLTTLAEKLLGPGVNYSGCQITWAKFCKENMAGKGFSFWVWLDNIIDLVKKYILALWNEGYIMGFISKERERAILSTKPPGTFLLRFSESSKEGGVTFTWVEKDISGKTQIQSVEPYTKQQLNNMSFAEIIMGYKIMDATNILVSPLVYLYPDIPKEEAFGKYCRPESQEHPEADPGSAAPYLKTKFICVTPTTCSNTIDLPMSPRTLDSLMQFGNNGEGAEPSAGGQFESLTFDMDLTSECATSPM", "test": "Surface Plasmon Resonance analysis of binding to immobilized His-tagged Stat3", "design": "species or system murine", "text": "Coding regions for the murine Stat3 protein and Stat3 SH2 domain were amplified by PCR and cloned into vectors pET-44 Ek/LIC (Novagen) and pET SUMO (Invitrogen), respectively.\nClones were sequenced to verify the correct sequences and orientation. His-tagged recombinant proteins were expressed in BL21(DE3) cells, and purified on Ni-ion sepharose column.\nSensiQ and its analysis software Qdat (ICX Technologies, Oklahoma City, Okla.) were used to analyze the interaction between agents and the Stat3 protein and to determine the binding affinity. Purified Stat3 was immobilized on a HisCap Sensor Chip by injecting 50 µg/ml of Stat3 onto the chip. […] The association and dissociation rate constants were calculated using the Qdat software. The ratio of the association and dissociation rate constants was determined as the affinity (KD).\nTo provide definitive evidence of direct binding to Stat3, biophysical studies were performed. H1s-tagged Stat3 protein (or SH2 domain; 50 ng) was immobilized on a Ni-NTA sensor chip surface for Surface Plasmon Resonance analysis of the binding of 531201.1066 as the analyte. Association and dissociation measurements were taken and the binding affinity of S31-201.1066 for Stat3 was determined using Qdat software."}, "NIH3T3/v-Ras fibroblasts": {"test_system": "NIH3T3/v-Ras fibroblasts", "test": "Wound healing assay for migration", "assay_type": "cell-based, mouse", "details": "same treatment conditions", "text": "Wounds were made using pipette tips in monolayer cultures of cells in six-well plates. […] The migration of cells was visualized at a 10× magnification using an Axiovert 200 Inverted Fluorescence Microscope (Zeiss, Göttingen Germany), with pictures taken using a mounted Canon Powershot A640 digital camera (Canon USA, Lake Success, N.Y.). Cells that migrated into the denuded area were quantified. Mice and in vivo tumor studies-Six-week-old female athymic nude mice were purchased from Harlan and maintained in the institutional animal facilities approved by the American Association for Accreditation of Laboratory Animal Care. Athymic nude mice were injected subcutaneously in the left flank area with 5×10^6 human breast cancer MDA-MB-231 cells in 100 μL of PBS. After 5 to 10 days, tumors of a diameter of 3 mm were established. […] Tumor volume was calculated according to the formula V=0.52×a^2×b, where a, smallest superficial diameter, b, largest superficial diameter."}, "[3]": {"target": "T2, Stat3 association with EGFR (Homo sapiens, UniProt P40763)", "T2 construct": "immunoprecipitated from whole-cell lysates prepared from treated and untreated cancer cells and blotted for Stat3; endogenous in cells; host or cells: Panc-1 and MDA-MB-231 cells", "T2 sequence (P40763 2-770 limits assumed)": "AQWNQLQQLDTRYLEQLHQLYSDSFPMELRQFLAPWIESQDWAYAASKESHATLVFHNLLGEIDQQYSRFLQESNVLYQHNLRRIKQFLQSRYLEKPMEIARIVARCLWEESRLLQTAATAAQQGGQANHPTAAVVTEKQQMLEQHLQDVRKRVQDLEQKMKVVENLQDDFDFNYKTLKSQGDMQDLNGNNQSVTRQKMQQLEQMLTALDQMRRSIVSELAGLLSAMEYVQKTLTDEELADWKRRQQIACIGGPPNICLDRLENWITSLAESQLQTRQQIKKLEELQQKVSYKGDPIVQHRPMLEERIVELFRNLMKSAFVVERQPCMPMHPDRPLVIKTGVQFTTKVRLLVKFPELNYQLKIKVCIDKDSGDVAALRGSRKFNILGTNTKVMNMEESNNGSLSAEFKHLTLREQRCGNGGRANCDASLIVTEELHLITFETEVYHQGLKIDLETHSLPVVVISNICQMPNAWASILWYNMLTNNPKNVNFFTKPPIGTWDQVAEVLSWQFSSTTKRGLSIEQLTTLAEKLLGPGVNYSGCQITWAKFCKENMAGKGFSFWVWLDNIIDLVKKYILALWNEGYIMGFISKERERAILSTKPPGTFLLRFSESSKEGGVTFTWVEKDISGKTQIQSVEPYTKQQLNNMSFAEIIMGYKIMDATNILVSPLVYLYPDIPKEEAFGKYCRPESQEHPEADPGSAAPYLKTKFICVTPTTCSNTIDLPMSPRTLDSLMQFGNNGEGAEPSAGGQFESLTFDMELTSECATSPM", "test": "Co-immunoprecipitation of EGFR immunecomplex from treated Panc-1 and MDA-MB-231 cells", "assay_type": "cell-based", "experimental": "Immunoprecipitation from whole-cell lysates and SDS/PAGE and Western blotting analysis were performed as previously described (33,38).\nas §1"}, "[4]": {"test_system": "NIH3T3/v-Src, MDA-MB-231 and Panc-1 cells", "test": "Soft-agar colony formation assay", "assay_type": "cell-based, mouse, human", "experimental": "as §2"}},
  "data": [
    {"compound": "Cc1ccc(S(=O)(=O)N(C)CC(=O)N(Cc2ccc(C3CCCCC3)cc2)c2ccc(C(=O)O)c(O)c2)cc1", "note": "[S3I-201.1066]", "values": [
      {"measurement": "EGF-stimulated colocalization between EGFR and Stat3 and Stat3 nuclear localization", "setting": "[1]", "result": "strongly blocked"},
      {"measurement": "viability and growth", "setting": "[2]", "result": "not significantly altered"},
      {"measurement": "soft-agar growth", "setting": "NIH3T3/v-Ras", "result": "minimal effect"},
      {"measurement": "constitutive Stat3 activation in treated cells", "setting": "Stat3", "result": "significant inhibition"},
      {"measurement": "Kd", "setting": "His-tagged Stat3; affinity (KD) for Stat3 or the SH2 domain, SPR", "result": 2300, "unit": "nM"},
      {"measurement": "Kd", "setting": "His-tagged Stat3; binding affinity, Ko / KD for Stat3, SPR, immobilized His-Stat3", "result": 2.74, "unit": "nM"},
      {"measurement": "migration", "setting": "NIH3T3/v-Ras fibroblasts", "result": "minimally affected"},
      {"measurement": "Shc or Grb 2 levels associated with EGFR in the complex", "setting": "[3]", "result": "without affecting"},
      {"measurement": "level of Stat3 associated with EGFR in the immunecomplex", "setting": "[3]", "result": "significantly diminished"},
      {"measurement": "levels of activated and total Erk1/2 in whole-cell lysates", "setting": "[3]", "result": "unaffected"},
      {"measurement": "growth in soft-agar suspension", "setting": "[4]", "result": "significantly inhibited"}
    ]}
  ]
}
